Reference: article PMC10593742, “Binding mechanism and biological effects of flavone DYRK1A inhibitors for the design of new antidiabetics” (Scientific Reports, 2023)
Like-named read-outs stand apart in the source and are kept apart here.

How the values were obtained:
INS-1E cells [1] = experiment: MTT cytotoxicity and cell survival assay, INS-1E; details: for concentration range with increased cell viability (MTT): 24 h; for cytotoxic effect, combination with LY364947 or GLP-1: LY364947 […] or GLP-1 5 nM, gossypin […], rutin 1 μM
[2] = LogP determination by the shake-flask method; assay type: physicochemical; details: n-octanol/PBS
MIN6 cells [3] = experiment: MIN6 cell proliferation by Ki-67 staining and flow cytometry; assay type: cell-based, mouse; details: for Ki-67-positive cells, combination with GLP-1 / Ki-67-positive cells, combination with LY364947: MIN6; for Ki-67-positive cells, combination with GLP-1: GLP-1 5 nM
MIN6 cells [4] = experiment: MTT cytotoxicity and cell survival assay, MIN6; details: MIN6, 24 h
[5] = test system: DYRK1A-related NFAT signaling; experiment: NFAT activity luciferase assay in HEK293T NFAT cells; assay type: cell-based; details: for increase in Renilla luciferase activity (NFAT reporter): 10 μM, 3 h pre-treatment, then PMA/IM 5 h, relative to DMSO
MIN6 cells [6] = experiment: Glucose-stimulated insulin secretion (GSIS) quantified by ELISA, MIN6; details: GLP-1 5 nM
DYRK1A = molecular target: T1, DYRK1A (Homo sapiens, UniProt Q13627); experiment: Cook activity assay (DYRK1A-catalyzed phosphorylation of DYRKtide, ADP production linked to PK/LDH NADH oxidation); assay type: biochemical; details: for IC50: read-out: IC50 (DYRK1A inhibition)
T1 construct: In the assay, the truncated DYRK1A protein restricted to the kinase domain (126–490) was used; made in house; host or cells: E. coli LOBSTR strain

[7] = test system: DYRK1A-dependent CyclinD1 phosphorylation; experiment: CyclinD1 phosphorylation profile in transfected HEK293T cells (Western blot); assay type: cell-based; details: 10 μM, 6 h; HEK293T co-transfected with HA-CyclinD1 and Flag-DYRK1A
INS-1E cells [8] = experiment: Insulin expression level by flow cytometry, INS-1E; assay type: cell-based, rat; details: for effect on insulin level over 12 days: compound alone, 24 h incubation; for insulin level: harmine 1 μM
[9] = test system: hiPSC-derived beta cells organoids; experiment: Glucose-stimulated insulin secretion by ELISA, hiPSC-derived pancreatic islet organoids; assay type: cell-based, human; details: 24 h incubation; for insulin secretion by organoids (GSIS, ELISA): compound alone
Procedure: Differentiation of hiPSC into iPSC-derived β-cell islets was carried out following the protocol established by Pellegrini et al.[50]. A day before differentiation, 1 × 10^4 cells were seeded on coated with Geltrex (Gibco) 12 wells plate in Essential 8 medium (Gibco) with Y-27632 10 µM (Abcam). The appropriate culture media and required components based on the protocol of Pellegrini with modifications, as published in Barzowska et al.[37].
Cells and organoids were homogenized in lysis buffer.
Figure 9 Quercetin and TGFβ inhibitor—LY364947 collectively support insulin release from hiPSC-derived pancreatic islet organoids. (A) The analysis of insulin secretion by ELISA assay. […] The organoids were immunostained for insulin (green) and cytoskeleton (red). The nuclei were stained with Hoechst 33258 (blue). Scale bars, 20 μm.

MIN6 cells [10] = experiment: Insulin expression level by flow cytometry, MIN6; assay type: cell-based, mouse; details: for effect on insulin level over 12 days: MIN6, compound alone, 24 h incubation
[11] = test system: DYRK1A-controlled calcineurin/NFAT pathway; experiment: NFAT translocation assay (NFAT-GFP, mCherry-DYRK1A) in HEK293T cells; assay type: cell-based; details: 10 μM, 3 h, then IM 5 μM 1 h
[12] = 5 μM, 10 μM and 20 μM of compound, DMSO = 100%
[13] = kinase domain (126–490), compound 20 nM–200 μM, ATP (128 µM)

Compound	concentration range with increased cell viability (MTT) (INS-1E cells [1])	increase in proliferation rate (Ki-67-positive cells) vs control (MIN6 cells [3]; MIN6, compound alone)	concentration range with increased cell viability (MTT) (MIN6 cells [4])	increase in Renilla luciferase activity (NFAT reporter) [5]	effect on residual DYRK1A activity (DYRK1A; [12])	IC50 (DYRK1A; [13]) [µM]	CyclinD1 phosphorylation (p-CyclinD1 at Thr289) [7]	also measured
O=c1cc(-c2ccccc2)oc2cc(O)c(O)c(O)c12 [baicalein, 5,6,7-trihydroxy-2-phenylchromen-4-one]	0.1 to 2.5 µM	5%	0.1 to 2.5 µM	threefold	decreased DYRK1A activity dose-dependently	3.6	significantly reduced CyclinD1 phosphorylation	logP at 15 min [2]: 2.55; Ki-67-positive cells, combination with GLP-1 (MIN6 cells [3]; control cells 32%): 55%; Ki-67-positive cells, combination with LY364947 (MIN6 cells [3]; control cells 32%): 48%; insulin secretion (GSIS, ELISA), combination with GLP-1 (MIN6 cells [6]): improve insulin secretion
C[C@@H]1O[C@@H](Oc2c(-c3cc(O)c(O)c(O)c3)oc3cc(O)cc(O)c3c2=O)[C@H](O)[C@H](O)[C@H]1O [myricitrin, 5,7-dihydroxy-3-[(2S,3R,4R,5R,6S)-3,4,5-trihydroxy-6-methyloxan-2-yl]oxy-2-(3,4,5-trihydroxyphenyl)chromen-4-one]	–	–	–	–	no influence on DYRK1A activity	–	–	–
O=c1c(O)c(-c2ccc(O)c(O)c2)oc2cc(O)cc(O)c12 [quercetin, 2-(3,4-dihydroxyphenyl)-3,5,7-trihydroxychromen-4-one]	0.25 to 5 µM	–	0.25 to 5 µM	threefold	–	–	significantly reduced CyclinD1 phosphorylation	LogP [2]: 1.40; Ki-67-positive cells, combination with GLP-1 (MIN6 cells [3]; control cells 32%): modest effect; effect on insulin level over 12 days (INS-1E cells [8]): noticeable decrease in insulin level on day 12; insulin secretion by organoids (GSIS, ELISA), with LY364947 addition [9]: enhanced by LY364947 addition; insulin secretion by organoids (GSIS, ELISA) [9]: significant increase in insulin secretion; effect on residual DYRK1A activity (DYRK1A): decreased DYRK1A activity dose-dependently; IC50 (DYRK1A): 1.7 µM; effect on insulin level over 12 days (MIN6 cells [10]): noticeable decrease in insulin level on day 12
COc1ccc(-c2cc(=O)c3c(OC)c(OC)c(OC)cc3o2)cc1OC [sinensetin, 2-(3,4-dimethoxyphenyl)-5,6,7-trimethoxychromen-4-one]	–	–	–	–	no influence on DYRK1A activity	–	–	–
O=c1cc(-c2ccc(O)cc2)oc2cc(O[C@@H]3O[C@H](CO)[C@@H](O)[C@H](O)[C@H]3O)cc(O)c12 [apigetrin, 5-hydroxy-2-(4-hydroxyphenyl)-7[(2S,3R,4S,5S,6R)3,4,5-trihydroxy-6-(hydroxymethyl)oxan-2-yl]oxychromen-4-one]	–	–	–	–	no influence on DYRK1A activity	–	–	–
O=c1c(O)c(-c2ccc(O)cc2)oc2c(O)c(O)cc(O)c12 [herbacetin, 3,5,7,8-tetrahydroxy-2-(4-hydroxyphenyl)chromen-4-one]	Identical results	–	Identical results	–	decreased DYRK1A activity dose-dependently	6.3	Moderate inhibition of CyclinD1 phosphorylation	logP at 15 min [2]: 1.72; activation of NFAT response ([5]; 1 to 10 μM): only effective at the highest concentration tested
C[C@@H]1O[C@@H](OC[C@H]2O[C@@H](Oc3c(-c4ccc(O)c(O)c4)oc4cc(O)cc(O)c4c3=O)[C@H](O)[C@@H](O)[C@@H]2O)[C@H](O)[C@H](O)[C@H]1O [rutin, 2-(3,4-dihydroxyphenyl)-5,7-dihydroxy-3-[(2S,3R,4S,5S,6R)-3,4,5-trihydroxy-6-[[(2R,3R,4R,5R,6S)-3,4,5-trihydroxy-6-methyloxan-2-yl]oxymethyl]oxan-2-yl]oxychromen-4-one]	did not influence cell viability	–	did not influence cell viability	twofold	decreased DYRK1A activity dose-dependently	4.5	significantly reduced CyclinD1 phosphorylation	cytotoxic effect, combination with LY364947 or GLP-1 (INS-1E cells [1]): slight cytotoxic effect; LogP [2]: negative logP
GLP-1: GLP-1R agonist	–	up to 5%	–	–	–	–	–	effect on insulin level over 12 days (INS-1E cells [8]): robust increase in insulin production level in the late stage of the experiment (day 5–12); effect on insulin level over 12 days (MIN6 cells [10]): robust increase in insulin production level in the late stage of the experiment (day 5–12)
COc1cc(-c2cc(=O)c3c(O)c(OC)c(OC)c(OC)c3o2)cc(OC)c1OC [gardenin A, 5-hydroxy-6,7,8-trimethoxy-2-(3,4,5-trimethoxyphenyl)chromen-4-one]	–	–	–	–	no influence on DYRK1A activity	–	–	–
O=c1c(O)c(-c2ccc(O)c(O)c2)oc2c(O[C@@H]3O[C@H](CO)[C@@H](O)[C@H](O)[C@H]3O)c(O)cc(O)c12 [gossypin, 2-(3,4-dihydroxyphenyl)-3,5,7-trihydroxy-8-[(2S,3R,4S,5S,6R)-3,4,5-trihydroxy-6-(hydroxymethyl)oxan-2-yl]oxychromen-4-one]	did not influence cell viability	–	did not influence cell viability	twofold	decreased DYRK1A activity dose-dependently	1.4	significantly reduced CyclinD1 phosphorylation	cytotoxic effect, combination with LY364947 or GLP-1 (INS-1E cells [1]): slight cytotoxic effect; LogP [2]: negative logP
c1ccc(-c2[nH]ncc2-c2ccnc3ccccc23)nc1 [LY364947]	–	up to 5%	–	–	–	–	–	effect on insulin level over 12 days (INS-1E cells [8]): less prominent but constant effect over the 12 days; insulin secretion by organoids (GSIS, ELISA) [9]: less pronounced effect; effect on insulin level over 12 days (MIN6 cells [10]): less prominent but constant effect over the 12 days
COc1ccc2c(c1)[nH]c1c(C)nccc12 [harmine]	1 to 2.5 µM	about 20%	0.01 to 10 µM	–	–	–	–	logP at 15 min [2]: 3.24; Ki-67-positive cells (MIN6 cells [3]; MIN6, compound alone, control cells 32%): 50%; Ki-67-positive cells, combination with GLP-1 (MIN6 cells [3]; control cells 32%): 55%; Ki-67-positive cells, combination with LY364947 (MIN6 cells [3]; control cells 32%): 58%; nuclear translocation of NFAT-GFP despite mCherry-DYRK1A overexpression [11]: induced nuclear translocation of NFAT-GFP; concentrations at which mild toxicity was observed (MTT) (MIN6 cells [4]): higher than 50 μM; effect on the GLP-1-induced increase in insulin production level, administered simultaneously with GLP-1 (INS-1E cells [8]; GLP-1 5 nM): attenuated; insulin level (INS-1E cells [8]; day 1, control 10%): 37%; insulin level (INS-1E cells [8]; day 5, control 28%): 34%; insulin secretion by organoids (GSIS, ELISA), with LY364947 addition [9]: enhanced by LY364947 addition; insulin secretion by organoids (GSIS, ELISA) [9]: highest insulin secretion level; insulin level (MIN6 cells [10]; MIN6, day 12, control 24%, harmine 1 μM): 37%; effect on the GLP-1-induced increase in insulin production level, administered simultaneously with GLP-1 (MIN6 cells [10]; MIN6, GLP-1 5 nM): attenuated
